Experimental data: patent US11319313B2, “Crystalline forms of deuterium-enriched pioglitazone” (Poxel SA, priority 2020, dated 2022)
Marks after values point to notes of the source that are not given here.

Columns and labels:
[1] = Dog pharmacokinetic (PK) study, single oral administration; type: in vivo, Beagle dogs
Experimental: The 3 Beagle male dogs were fasted before dosing. Then all test drugs were administered by the oral route using API in a capsule. [table] Food was given no sooner than one hour after dose administration on the days of treatment. Each administration was separated by a wash-out period of at least 2 days. […] Predose (just before dosing) and then […] after dosing.

[2] = Phase Ia single-dose PK study in healthy human subjects; type: in vivo; conditions: single oral dose 22.5 mg capsule
Experimental: PXL065, orally administered.
(§1) Actos®, orally administered. Dose=1×45 mg, tablet.

[3] = 13-week dog toxicology study, toxicokinetics on day 91; conditions: for AUC0-24, ss dose normalized, total pioglitazone: Day 91, 5 mg/kg/day; for AUC0-24,ss, total pioglitazone: Day 91, oral capsule 5 mg/kg/day
[4] = Phase Ib repeated-dose PK study in healthy human subjects; type: in vivo; conditions: for AUC0-24,ss, total pioglitazone / AUC0-24, ss dose normalized, total pioglitazone: steady state; for AUC0-24,ss, total pioglitazone: fasting
Experimental: Subjects were screened within 28 days before their first dose of study medication. They stayed in the clinic from 1 day before dosing (Day −1) until at least 48 hours after their final dose of trial medication (Day 11).
Each dose group was composed of 4 males and 4 females in a 3:1 active/placebo ratio. • One (1) Actos® group: 6 subjects (3 males and 3 females) were given Actos®. Placebo was not given to any subjects in this group.
Subjects received a single oral dose of study drug (7.5, 15, or 30 mg tablets of PXL065 or matching placebo tablets, or 45 mg Actos® tablets), under fasting conditions on Day 1. […] All study drugs were dosed in fasting conditions.
The PXL065 PK parameters of the three single oral doses on Day 1 and after seven daily administrations on Day 9 were compared to the Actos® PK parameters on Day 1 and after seven daily administrations on Day 9.
PXL065, orally administered. Dose=1×7.5 mg tablet, 1×15 mg tablet, or 1×30 mg tablet.
as §1
One single oral administration of PXL065 or matching placebo or Actos® was given on Day 1 in fasting conditions followed by once daily multiple oral administrations of PXL065 or matching placebo or Actos® from Day 3 to Day 9 (7 days) in fasting conditions.
Pharmacokinetics: Plasma samples were analyzed using a validated assay. The samples from all evaluable subjects were analyzed. Samples from subjects who experienced emesis within 4 hours of dosing were not analyzed.
Plasma PK parameters included, but were not limited to: • Following single dose on Day 1 and Day 3 (for PXL065 groups): tmax, tlag, Cmax, AUC0-last, AUC0-24, AUC0-inf, λz, t1/2, % AUCext, CL/F, Vz/F, Cmax/Dose, AUC0-last/Dose, AUC0-inf/Dose and MRT each calculated using compartmental or non-compartmental methods as appropriate for the deuterated and protonated (R)- and (S)-enantiomers of pioglitazone. • Day 4 to Day 9: Ctrough for the deuterated and protonated (R)- and (S)-enantiomers of pioglitazone; and • Following repeated doses on Day 9: tmax, Cmax, Cavg, tlag, AUC0-last, AUC0-24, AUC0-inf, λz, t1/2, % AUCext, CLss/F, Vzss/F, MRT, PTF, Rac(AUC0-24), Rac(Cmax) SR(AUC), Cmax/Dose, AUC0-last/Dose, AUC0-inf/Dose, AUC0-24/Dose. Safety

[5] = single oral 5 mg/kg (capsule), fasted male dogs, plasma, mean

## [2H][C@]1(Cc2ccc(OCCc3ccc(CC)cn3)cc2)SC(=O)NC1=O [PXL065, deuterium-enriched (R)-pioglitazone]
[1]; dog, in vivo, po, 5 mg/kg
  AUC0-24, Total Pio: 7000 ng·h/mL
  AUC0-24, Total R-pio: 5770 ng·h/mL
  AUC0-24, Total S-pio: 1240 ng·h/mL
  Cmax, Total Pio: 1520 ng/mL
  Cmax, Total R-pio: 1330 ng/mL
  Cmax, Total S-pio: 227 ng/mL
  Tmax, Total Pio: 1 h
  Tmax, Total R-pio: 1 h
  Tmax, Total S-pio: 2 h
[1]; [5]
  T1/2z, Total Pio: 1.46^a h
  T1/2z, Total R-pio: 1.43^a h
  T1/2z, Total S-pio: 1.62^a h
[2]
  AUCinf dose normalized, total pioglitazone: 618 ng·h/mL/mg
[2]; fasted healthy subjects
  AUCinf, total pioglitazone: 13896 ng·h/mL
[3]; female dogs (F)
  AUC0-24, ss dose normalized, total pioglitazone: 1762 ng·h/mL
  AUC0-24,ss, total pioglitazone: 8710 ng·h/mL
[3]; male dogs (M)
  AUC0-24, ss dose normalized, total pioglitazone: 2180 ng·h/mL
  AUC0-24,ss, total pioglitazone: 10900 ng·h/mL
[4]; 15 mg tablet once daily, repeated doses
  AUC0-24,ss, total pioglitazone: 6505 ng·h/mL
[4]; 15 mg tablet
  AUC0-24, ss dose normalized, total pioglitazone: 434 ng·h/mL/mg
[4]; 30 mg tablet once daily, repeated doses
  AUC0-24,ss, total pioglitazone: 13802 ng·h/mL
[4]; 30 mg tablet
  AUC0-24, ss dose normalized, total pioglitazone: 460 ng·h/mL/mg
[4]; humans, repeated doses
  Increase of relative bioavailability compared to Actos: 55%-65%
